Patent EP1026165A1, “O-substituted Hydroxycoumaranone derivatives as antitumor and antimetastatic agents” (Roche Diagnostics GmbH, priority 1999, dated 2000)

Target: uPAR (Homo sapiens, UniProt Q03405)
Assay: BIO-R4 assay (ELISA test): inhibition of uPA binding to its specific receptor uPAR
Conditions: Inhibition of uPA binding to the specific uPAR receptor (BIO-R4); detection at 405 nm
Experimental: The compounds of the invention were tested (ELISA test) as inhibitors of human urokinase (uPA) binding to its specific receptor uPAR mAk (BIO-R4), according to the procedure described in Biol. Chem. Hoppe-Seyler, 376, 587-94 (1995) by Rettenberger et al. The assays are performed in Microtiterplates (96 wells). The following solutions are used: • washing buffer: PBS-buffer (without Mg^2+ and Ca^2+) + 0.05% Tween 20; • incubation buffer (IP): 1% skimmed milk powder in PBS-buffer (without Mg^2+ and Ca^2+); • BIO-R4 solution: 50 ng/well (0.5 µg/ml 100 µl/well) in IP; • uPAR solution: 3 ng/well (30 ng/ml; 100 µl/well) in PBS-buffer (without Mg^2+ and Ca^2+); • blocking solution: 1% skimmed milk powder in washing buffer (dissolved at 37°C); • uPA solution: 0.25 ng/well (5 ng/ml; 50 µl/well) in IP.
Detection solutions (per microtiterplate):
• (1) 6 ml (100 mM Tris-Cl pH 7.2 + 0.15% Tween 80) + 1.5 ml (10 µg) plasminogen in aqua bidest; • (2) 6 ml (100 mM Tris-Cl pH 7.2 + 0.15% Tween 80) + 1.5 ml (7.5 mg) chromozyme PL in aqua bidest. […]
For detection, the following procedure is used: Incubation with 50 µl each of detection solution (1) and (2) at room temperature. After 20 minutes a yellow colour will be visible (the positive control reads an extinction of 1 after 45-60 minutes). The detection is performed at 405 nm (reference is 490 nm) using a Dynatech MR 7000 ELISA reader. […]

uPAR, sequence (Q03405 23-305 limits assumed): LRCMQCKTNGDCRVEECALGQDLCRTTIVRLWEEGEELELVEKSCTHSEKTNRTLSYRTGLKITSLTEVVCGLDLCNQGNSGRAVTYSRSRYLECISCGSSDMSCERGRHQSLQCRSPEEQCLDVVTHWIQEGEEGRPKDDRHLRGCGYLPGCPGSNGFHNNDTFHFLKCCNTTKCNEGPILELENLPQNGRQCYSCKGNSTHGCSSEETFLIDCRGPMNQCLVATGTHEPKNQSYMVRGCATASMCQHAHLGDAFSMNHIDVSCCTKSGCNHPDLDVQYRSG

Structure (SMILES) | IC50
CC(C)=C1Oc2cccc(OCC#CCN3CCC(NC(=O)c4ccc(Cl)c(S(N)(=O)=O)c4)CC3)c2C1=O [Example 4, 4-{4-[4-(3-aminosulfonyl-4-chlorobenzamido)piperidino]but-2-ynoxy}-2-isopropylidenecoumaran-3-one] | 1790 nM
CC(C)=C1Oc2cccc(OCc3cccc(CN4CCC(NC(=O)c5ccc(Cl)c(Cl)c5)CC4)c3)c2C1=O [Example 11, 4-{3-[4-(3,4-dichlorobenzamido)piperidinomethyl]phenylmethoxy}-2-isopropylidenecoumaran-3-one] | 1410 nM
